Assay results published in patent publication US20060276498A1 (Wyeth, priority 2005, published 2006).

Key:
human Cot/Tpl2 kinase = target: T1, human Cot/Tpl2 kinase (Homo sapiens, UniProt P41279); test: Tpl2/Cot kinase assay, GST-MEK1 phosphorylation detected by ELISA (DELFIA Eu); format: biochemical; settings: Table 2; additional representative compounds
T1 construct: human Cot/Tpl2 kinase construct encoding residues 30-398; 6His (N); made in house; host or cells: Sf9 insect cells (baculovirus system, BD Biosciences)

Tpl2 = Tpl2 (Homo sapiens, UniProt P41279); settings: background statement; cited from earlier work
Sequence of Tpl2 (P41279 whole entry): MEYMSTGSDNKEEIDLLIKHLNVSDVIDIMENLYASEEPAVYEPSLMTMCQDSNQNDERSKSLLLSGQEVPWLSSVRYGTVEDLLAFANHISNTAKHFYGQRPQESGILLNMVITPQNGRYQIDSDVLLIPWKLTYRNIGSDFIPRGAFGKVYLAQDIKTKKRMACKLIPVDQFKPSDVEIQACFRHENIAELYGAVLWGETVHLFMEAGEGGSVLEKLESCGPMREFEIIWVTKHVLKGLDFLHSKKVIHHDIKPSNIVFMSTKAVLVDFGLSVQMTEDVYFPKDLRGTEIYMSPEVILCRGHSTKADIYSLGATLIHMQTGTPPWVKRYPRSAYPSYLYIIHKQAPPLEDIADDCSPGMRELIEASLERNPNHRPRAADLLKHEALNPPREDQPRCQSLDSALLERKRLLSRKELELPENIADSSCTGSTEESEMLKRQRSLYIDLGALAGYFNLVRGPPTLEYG

T1 sequence (P41279 30-398): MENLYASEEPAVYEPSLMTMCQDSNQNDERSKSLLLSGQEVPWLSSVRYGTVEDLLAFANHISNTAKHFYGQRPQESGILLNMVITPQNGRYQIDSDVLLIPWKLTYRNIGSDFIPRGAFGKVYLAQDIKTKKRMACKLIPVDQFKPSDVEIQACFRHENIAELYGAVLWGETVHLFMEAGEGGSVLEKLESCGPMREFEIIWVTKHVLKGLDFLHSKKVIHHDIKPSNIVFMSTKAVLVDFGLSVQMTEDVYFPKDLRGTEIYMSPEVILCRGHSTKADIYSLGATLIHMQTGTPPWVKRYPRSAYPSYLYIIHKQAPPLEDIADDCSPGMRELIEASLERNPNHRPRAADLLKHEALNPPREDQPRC

| Structure (SMILES) | IC50 (human Cot/Tpl2 kinase) [µM] | inhibition of Tpl2 (Tpl2) |
| --- | --- | --- |
| CC(C)(C)Nc1cc2c(Nc3ccc(F)c(Cl)c3)c(C#N)cnc2cn1 [Example 143, 6-(tert-butylamino)-4-[(3-chloro-4-fluorophenyl)amino]-1,7-naphthyridine-3-carbonitrile] | > 40 | – |
| N#Cc1cnc2cnc(NC3CCCCCC3)cc2c1Nc1ccc(F)c(Cl)c1 [Example 144, 4-[(3-chloro-4-fluorophenyl)amino]-6-(cycloheptylamino)-1,7-naphthyridine-3-carbonitrile] | 5.2 | – |
| N#Cc1cnc2cnc(NCc3cccnc3)cc2c1NCc1cccnc1 [Example 145, 4,6-bis(pyridin-3-ylmethylamino)-1,7-naphthyridine-3-carbonitrile] | > 40 | – |
| CN[C@@H]1C[C@H]2O[C@@](C)([C@@H]1OC)n1c3ccccc3c3c4c(c5c6ccccc6n2c5c31)C(=O)NC4 [staurosporine] | – | not inhibited |
